# According to patent USRE40594E1, “Inhibitors of the bitter taste response” (Mount Sinai School of Medicine of New York University, priority 1998, dated 2008):
# “Also recorded” adds a separate entry of the source.
# Columns and labels:
# [1] = target: T1, rhodopsin (Bos taurus, UniProt P02699); assay: Rhodopsin-mediated activation of transducin (trypsin sensitivity assay, receptor specificity control); assay type: biochemical, bovine; conditions: 0.001 mM rhodopsin; AMP 0.25, 0.5, 1.25, 2.5, 5.0 mM; FIG. 1D
# T1 construct: Rhodopsin was purified in the light as 6 M urea-washed bovine rod outer segments; from tissue; host or cells: bovine rod outer segments (6 M urea-washed)
# T1 sequence (P02699 whole entry): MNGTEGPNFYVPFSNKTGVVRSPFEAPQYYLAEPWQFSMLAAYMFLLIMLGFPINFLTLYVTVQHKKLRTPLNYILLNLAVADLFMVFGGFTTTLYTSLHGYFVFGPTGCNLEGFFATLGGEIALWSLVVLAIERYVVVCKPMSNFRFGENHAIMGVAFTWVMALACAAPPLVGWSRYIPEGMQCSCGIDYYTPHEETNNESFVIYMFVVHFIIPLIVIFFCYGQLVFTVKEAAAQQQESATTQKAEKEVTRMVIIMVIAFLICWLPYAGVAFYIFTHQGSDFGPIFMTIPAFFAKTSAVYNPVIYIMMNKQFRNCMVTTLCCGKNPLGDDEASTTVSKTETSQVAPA
# Method: G Protein Activation Assays. Bovine (Bos primigenius) tongues were collected fresh from a local slaughterhouse and transported on ice to the laboratory. Circumvallate papillae were hand dissected, frozen in liquid nitrogen, and stored at −80° C. until use. The collected taste tissues were homogenized, particulates removed by centrifugation, and enriched taste cell membranes collected as described (Ming, D., et al., 1998, Proc. Natl. Acad. Sci. U.S.A. 95:8933-8938). The pelleted membranes were rinsed twice, resuspended in homogenization buffer lacking protease inhibitors, and further homogenized by 20 passages through a 25-gauge needle. Aliquots were either flash frozen or stored on ice until use. The concentration of protein in the membrane preparations was determined by the Peterson modification of the micro-Lowry method (Peterson, G. L., 1977, Anal. Biochem. 83:346-356). Activation of transducin was based on the published trypsin sensitivity procedure (Ming, D., et al., 1998, Proc. Natl. Acad. Sci. U.S.A. 95:8933-8938, Neer, E. J., et al., 1994, Methods Enzymol. 237:226-239). After the trypsin digestion, samples were diluted with Laemmli buffer (Laemmli. U. K., 1970, Nature (London) 227:680-685) and separated by SDS/PAGE by using a 4-20% gel and Tris-glycine buffer. […]
# [2] = system: C57BL/6J mice; assay: Forty-eight-hour two-bottle preference test (behavioral assay); assay type: in vivo
# Method: Behavioral Assays. Multiple sets of male C57BL/6J mice from the Jackson Laboratory were tested. Each set (n=10) was tested with tastant±AMP or GMP. Between tests, mice were provided with acidified water (pH 4.5) for about 2 wk. Tested mice ranged in age from 8 to 20 wk. Mice were individually housed, provided with food ad libitum (Pico Lab Mouse Diet 20 no. 5058; PMI Feeds, St. Louis, Mo.) and presented with distilled water in two sipper bottles for 48 h before testing. During each 48-h test period, a given concentration of tastant was provided in one sipper bottle, whereas the other had distilled water. After 24 h, volumes consumed were recorded, the bottles refilled, and positions reversed (to control for positional cues). Tastants were presented in ascending concentration. Preference ratios were calculated as the fraction of tastant consumed as a percentage of the total volume of liquid consumed. Mean preference ratios and Student's t tests were calculated from total collected data.
structure (smiles),measurement,setting,value
"Nc1ncnc2c1ncn2[C@@H]1O[C@H](COP(=O)(O)O)[C@@H](O)[C@H]1O [AMP, adenosine 5′ monophosphate]",inhibition of activation of transducin by rhodopsin,[1],does not inhibit; also recorded: did not inhibit
same,shift of DEN dose-aversiveness curve,"[2]; AMP 0.1, 1.0, 5.0 mM, FIG. 3B",shifted the dose-aversiveness curve to the right
same,concentration at which AMP alone elicits behavioral responses,"[2]; AMP alone, two-bottle preference, FIG. 3B",≥ 0.5 mM
same,inhibitory effect on aversive responses at highest concentration of DEN,"[2]; DEN 5.0 mM, FIGS. 3A-B",eliminated; also recorded: overcame
same,inhibition of aversive responses to DEN,"[2]; DEN 0.05, 0.10, 0.50, 1.0 mM, inhibitor 0.1 and 1.0 mM, n=10, P<0.001, FIG. 3A",inhibited
same,"inhibition of behavioral (aversive) responses to bitter compounds, summary statement","[2]; DEN, QUI and other bitter compounds",blocks
same,effect on behavioral responses to HCl,"[2]; HCl 0.01 and 0.10 mM, 0.1 mM AMP, FIG. 3E",did not alter; also recorded: did not affect
same,effect on behavioral responses to NaCl,"[2]; NaCl 0.1 and 0.3 M, 0.1 mM AMP, FIG. 3E",did not alter; also recorded: did not affect
same,inhibitory effect on aversive responses at highest concentration of QUI,"[2]; QUI 1.0 mM, FIGS. 3C-D",eliminated; also recorded: overcame
same,inhibition of aversive responses to QUI,"[2]; QUI 0.05, 0.10, 0.50 mM, inhibitor 0.1 and 0.5 mM, n=10, P<0.001, FIG. 3C",inhibited
same,effect on behavioral responses to SC45647,"[2]; SC45647 0.01 and 0.10 mM, 0.1 mM AMP, FIG. 3E",did not alter; also recorded: did not affect; also recorded: did not diminish
same,inhibition of aversive responses to sparteine (SPA),"[2]; SPA 0.05 and 0.10 mM, 0.1 mM AMP, P<0.001, FIG. 3E",inhibited
same,inhibition of aversive responses to (−)-epicatechin,"[2]; epicatechin 0.05 and 0.10 mM, 0.1 mM AMP, P<0.01, FIG. 3E",inhibited
same,shift of QUI dose-aversiveness curve,"[2]; increasing concentrations of AMP, FIG. 3D",shifted the dose-aversiveness curve to the right
same,effect on behavioral responses to sucrose,"[2]; sucrose 5.0 and 150 mM, 0.1 mM AMP, FIG. 3E",did not alter; also recorded: did not affect
